Test results as given in patent US9260400B2, “I-arylpiperazinic ligands of 5-HT7 receptor and use thereof” (UNIVERSITA' DEGLI STUDI DI BARI “ALDO MORO”, priority 2011, dated 2016).

How the values were obtained:
[1] = In vitro metabolic stability using liver S9 fractions; format: in vitro ADME; conditions: 10 μM compound, 1 mg/ml rat liver S9, 30 min at 37° C.
Experimental: Determination of in vitro Metabolic Stability Using Liver S9 Fractions
Tested compounds (10 μM) were incubated with rat liver S9 fractions (1 mg/ml), liver S9 fractions are subcellular fractions that contain drug-metabolizing enzymes such as cytochromes P450, flavin monooxygenases, and UDP glucuronyl transferases.
The incubation was performed in 100 mM phosphate buffer (pH 7.4) containing 1.3 mM of NADP+, 3.3 mM glucose 6-phosphate and 0.4 U/ml glucose 6-phosphate dehydrogenase, 3.3 mM MgCl2 in a total volume of 1 mL. Incubations were commenced with the addition of glucose 6-phosphate dehygrogenase and carried out for 30 min. at 37° C. The reaction was stopped by adding 1 mL of cooled acetonitrile. The samples were centrifuged at 4600 rpm for 10 min at 4° C. The supernatant was separated and the acetonitrile phase was analyzed by using a reversed-phase HPLC equipped with a Perkin-Elmer series 200 LC pump and a Perkin-Elmer 785A UV/VIS detector. UV signals were monitored and obtained peaks integrated using a personal computer running Perkin-Elmer Turbochrom Software. The column used was a Phenomenex Gemini C-18 (250×4.6 mm, 5 μm particle size). The samples were eluted with ammonium formate (20 mM; pH 6.7) and acetonitrile 80:20 v/v at a flow rate of 1 mL/min and at the appropriate UV wavelength. The sample injection volume was 20 μL.
This assay provides information on the xenobiotic metabolism of the tested compounds; the results obtained are reported in table 1.

[2] = target: T1, human cloned 5-HT7 receptor (Homo sapiens, UniProt P34969); test: Radioligand binding assay at human cloned 5-HT7 receptors ([3H]-5-CT competition); conditions: read-out: 5-HT7 (pKi) (converted)
T1 construct: expressed in transfected cells
Experimental: Radioligand Binding Assay At Human Cloned 5-HT7 Receptors
Functionality assays on the 5-HT7 receptor were done according to Jasper et al [Br. J. Pharmacol. 1997, 122, 126.] with minor modifications. The test is a competition assay based on binding of [^3H]-5-CT at human cloned 5-HT7 receptor. In 0.5 mL of incubation buffer (50 mM Tris-HCl, 10 mM MgSO4 and 0.5 mM EDTA, pH 7.4) were suspended 34 μg of membranes, 1.5 nM [^3H]-5-CT, the drugs or reference compound (six to nine concentrations). The samples were incubated for 120 min at 27° C. The incubation was stopped by rapid filtration on Whatman GF/C glass microfiber filters (pre-soaked in 0.3% polyethylenimine for 30 min). The filters were washed with 3×1 mL of ice-cold buffer (50 mM Tris-HCl, pH 7.4). Nonspecific binding was determined in the presence of 10 μM 5-CT. Approximately 90% of specific binding was determined under these conditions.
(§1) Competition binding data were analyzed using the GraphPad Prism Software (GraphPad Software, Inc., San Diego, Calif., USA). The value for the inhibition constant, Ki, was calculated by using the Cheng-Prusoff equation [Anal. Biochem. 1980, 107, 200-239].

[3] = target: T2, Human 5-HT1A serotonin receptors (Homo sapiens, UniProt P08908); test: Radioligand binding assay at human cloned 5-HT1A receptor ([3H]-8-OH-DPAT); conditions: compound at 10−7M
T2 construct: expressed in transfected cells; host or cells: HEK293-EBNA
T2 sequence (P08908 1-422): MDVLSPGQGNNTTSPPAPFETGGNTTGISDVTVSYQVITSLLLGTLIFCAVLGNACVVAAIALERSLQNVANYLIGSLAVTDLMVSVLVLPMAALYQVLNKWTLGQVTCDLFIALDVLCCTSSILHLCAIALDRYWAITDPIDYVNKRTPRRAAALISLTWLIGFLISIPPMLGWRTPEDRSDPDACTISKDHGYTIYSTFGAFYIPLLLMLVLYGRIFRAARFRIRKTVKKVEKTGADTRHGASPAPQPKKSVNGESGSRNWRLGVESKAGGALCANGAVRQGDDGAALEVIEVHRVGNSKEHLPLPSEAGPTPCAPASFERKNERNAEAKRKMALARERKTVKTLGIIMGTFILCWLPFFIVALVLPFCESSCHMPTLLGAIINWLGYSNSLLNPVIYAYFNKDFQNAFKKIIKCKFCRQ
Experimental: Radioligand Binding Assay At Human Cloned 5-HT1A Receptor
Human 5-HT1A serotonin receptors stably expressed in HEK293-EBNA cells were radiolabeled with 1.0 nM [^3H]-8-OH-DPAT [J. Biol. Chem. 1989, 264, 14848]. Samples containing 32 μg of membrane protein, different concentrations of each compound ranging from 0.1 nM to 10 μM were incubated in a final volume of 500 μL of 50 mM Tris-HCl pH 7.4, 5 mM MgSO4 for 120 min at […]. After this incubation time, samples were filtered through Whatman GF/C glass microfiber filters pre-soaked in polyethylenimine 0.5% for at least 30 min prior to use. The filters were washed twice with 1 ml of ice-cold buffer (50 mM Tris-HCl, pH 7.4). Nonspecific binding was determined in the presence of 10 μM 5-HT.
as §1

[4] = after 20 minutes following i.p injection; cited from earlier work

T1 sequence (P34969 whole entry): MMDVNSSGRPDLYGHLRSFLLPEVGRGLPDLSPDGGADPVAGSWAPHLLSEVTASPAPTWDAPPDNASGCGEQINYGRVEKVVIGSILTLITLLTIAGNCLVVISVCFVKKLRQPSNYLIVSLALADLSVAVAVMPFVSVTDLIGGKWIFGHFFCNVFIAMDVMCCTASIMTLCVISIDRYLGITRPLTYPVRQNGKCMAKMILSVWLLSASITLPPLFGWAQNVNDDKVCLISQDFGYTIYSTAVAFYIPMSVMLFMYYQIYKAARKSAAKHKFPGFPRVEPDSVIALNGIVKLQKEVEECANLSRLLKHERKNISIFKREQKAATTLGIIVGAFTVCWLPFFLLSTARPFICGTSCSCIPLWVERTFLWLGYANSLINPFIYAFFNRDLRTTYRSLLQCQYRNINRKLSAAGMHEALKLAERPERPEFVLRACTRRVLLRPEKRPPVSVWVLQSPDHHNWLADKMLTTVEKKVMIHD

Row | Structure (SMILES) | % parent compound after incubation with rat liver S9 fractions [1] | Ki [2] | 5-HT1A (% displacement of radioligand at 10−7M conc.) [3] | plasma and brain concentration [4]
1 | COc1ccc(-c2ccccc2N2CCN(CCCCCC(=O)NCc3ccccn3)CC2)cc1 [Example 21, 4-[2-(4-Methoxyphenyl)phenyl]-N-(2-pyridinylmethyl)-1-piperazinehexanamide] | 55% | 1.62 nM | 37% | –
2 | COc1ccc(OCC(O)CN2CCN(c3ccccc3-c3ccccc3)CC2)cc1 (stereo not shown) [Example 1, 1-(4-Methoxyphenoxy)-3-[4-(2-biphenyl)piperazin-1-yl] propan-2-ol] | 35% | 16.6 nM | 46% | –
3 | CSc1ccccc1N1CCN(CCCCCC(=O)NC2CCCc3ccccc32)CC1 (stereo not shown) [LP-44] | – | – | – | undetectable
4 | COc1ccc(OCC(O)CN2CCN(c3ncccc3-c3ccncc3)CC2)cc1 (stereo not shown) [Example 5, 1-(4-Methoxyphenoxy)-3-[4-[3-(4-pyridyl)-2-pyridyl]piperazin-1-yl]propan-2-ol] | 82% | 7.59 nM | 26% | –

Now from value to compound, other results behind:

Row | % parent compound after incubation with rat liver S9 fractions [1] | Ki [2] | 5-HT1A (% displacement of radioligand at 10−7M conc.) [3] | Structure (SMILES) | plasma and brain concentration [4]
5 | 84% | 6.92 nM | 25% | COc1cccc(C(F)CN2CCN(c3ncccc3-c3ccccn3)CC2)c1 (stereo not shown) [Example 12, 1-[2-Fluoro-2-(3-methoxyphenyl)ethyl]-4-[3-(2-pyridyl)-2-pyridyl)piperazine] | –
6 | 78% | 5.37 nM | 35% | COc1cccc(OCCN2CCN(c3ncccc3-c3ccccn3)CC2)c1 [Example 15, 1-[2-(3-Methoxyphenoxy)ethyl]4-[3-(2-pyridyl)-2-pyridyl]piperazine] | –
7 | 68% | 20 nM | 20% | FCCOc1ccc(OCCN2CCN(c3ncccc3-c3ccccn3)CC2)cc1 [Example 18, 1-[2-[4-(2-Fluoroethoxy)phenoxy]ethyl]-4-[3-(2-pyridyl)-2-pyridyl]piperazine] | –
8 | 80% | 5.75 nM | 31% | COc1ccc(CNC(=O)CCCCCN2CCN(c3ncccc3-c3ccccn3)CC2)cc1 [Example 24, N-[(4-Methoxyphenyl)methyl]-6-[4-[3-(2-pyridyl)-2-pyridyl]piperazin-1-yl]hexanamide] | –
